Source: ChEMBL document CHEMBL1147703, “Synthesis of a potent 5'-methylthioadenosine/S-adenosylhomocysteine (MTAN) inhibitor” (Bioorg Med Chem Lett, 2006)

Molecular target: 5'-methylthioadenosine/S-adenosylhomocysteine nucleosidase (Escherichia coli O157:H7, UniProt P0AF14)
Experiment: Inhibition of Escherichia coli MTAN

Chain of 5'-methylthioadenosine/S-adenosylhomocysteine nucleosidase (P0AF14 whole entry): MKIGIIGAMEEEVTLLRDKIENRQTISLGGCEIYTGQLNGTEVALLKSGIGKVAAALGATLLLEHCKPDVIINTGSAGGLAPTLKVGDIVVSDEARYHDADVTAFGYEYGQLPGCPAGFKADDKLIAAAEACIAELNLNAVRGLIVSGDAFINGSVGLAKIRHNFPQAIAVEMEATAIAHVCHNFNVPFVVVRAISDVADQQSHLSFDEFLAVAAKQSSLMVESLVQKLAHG

## Nc1ncnc2c([C@@H]3N[C@H](CSCCC(N)C(=O)O)[C@@H](O)[C@H]3O)c[nH]c12 (stereo partly specified)
  Ki: 1.7 nM
